This is an account of results in the NIST ThermoML archive (doi:10.1016/j.jct.2015.11.028).

Numbers after ± are expanded uncertainties.

This series can be described thus: mn = molality of the nth substance listed, in mol/kg. As to conditions: 298.15 K, 100 kPa, Liquid, Vibrating tube method.

What is called mass density is mass per unit of volume. Turning to `C[N+](C)(C)C[C@H](O)CC(=O)[O-]` [(R)-3-hydroxy-4-(trimethylammonio)butanoate] + O, under “m1 = 0.8817”, the mass density was found to be 1023.6 ± 0.21 kg/m3.
On to `[Cl-].[K+]` [potassium chloride] + O, for which the mass density runs as follows: (m1 = 0.5) 1019.83 ± 0.11 kg/m3; (m1 = 0.9998) 1041.41 ± 0.11 kg/m3; (m1 = 1.499) 1062.03 ± 0.12 kg/m3; (m1 = 2) 1081.48 ± 0.12 kg/m3; (m1 = 2.499) 1100.25 ± 0.12 kg/m3; (m1 = 2.98) 1117.69 ± 0.13 kg/m3.
As for `[Br-].[Na+]` [sodium bromide] + O, the mass density (m1 = 0.5) is reported as 1035.42 ± 0.11 kg/m3; the mass density (m1 = 0.9999) stood at 1072.67 ± 0.12 kg/m3; the mass density (m1 = 1.5) amounted to 1107.94 ± 0.13 kg/m3; the mass density (m1 = 2) was determined as 1142.48 ± 0.14 kg/m3; the mass density (m1 = 2.5) is reported as 1175.65 ± 0.14 kg/m3; the mass density (m1 = 2.999) was determined as 1207.24 ± 0.15 kg/m3.
For the compound `[Cl-].[Na+]` [sodium chloride] + O, the mass density amounted to 1036.18 ± 0.11 kg/m3 (m1 = 1); 1054.74 ± 0.12 kg/m3 (m1 = 1.5); 1072.27 ± 0.12 kg/m3 (m1 = 2); 1089.16 ± 0.12 kg/m3 (m1 = 2.499); 1105.67 ± 0.13 kg/m3 (m1 = 3).
